Active and inactive are the calls of the source. The calls are words filed in the database; no cut-off is given here.
Legend:
CHO [1] = experiment: Cytotoxicity against Cricetulus griseus CHO (Chinese hamster ovary) cells assessed as mitotic index at 100 uM treated for 3 hr by Giemsa staining based light microscopic analysis relative to untreated control (reference value: 100%); assay type: cell-based
CHO [2] = experiment: Cytotoxicity against Cricetulus griseus CHO (Chinese hamster ovary) cells assessed as frequency of third generation of mitotic cells at 1000 uM treated for 3 hr by BrdU assay (reference value: 0%); assay type: cell-based
CHO [3] = experiment: Cytotoxicity against Cricetulus griseus CHO (Chinese hamster ovary) cells assessed as frequency of first generation of mitotic cells at 200 uM treated for 3 hr by BrdU assay (reference value: 10%); assay type: cell-based
CHO [4] = experiment: Cytotoxicity against Cricetulus griseus CHO (Chinese hamster ovary) cells assessed as frequency of second generation of mitotic cells at 100 uM treated for 3 hr by BrdU assay (reference value: 90%); assay type: cell-based
CHO [5] = experiment: Antioxidant activity in Cricetulus griseus CHO (Chinese hamster ovary) cells assessed as proportion of H2O2-induced chromosomal aberrations bearing cells at 200 uM pre-incubated with H202 for 1 hr prior to cell addition by Giemsa staining; assay type: functional
CHO [6] = experiment: Genotoxicity in Cricetulus griseus CHO (Chinese hamster ovary) cells assessed as effect on frequencies of chromosomal aberrations bearing cells at <200 uM by Giemsa staining; assay type: toxicity, cell-based
CHO [7] = experiment: Cytotoxicity against Cricetulus griseus CHO (Chinese hamster ovary) cells assessed as mitotic index at 1000 uM treated for 3 hr by Giemsa staining based light microscopic analysis relative to untreated control (reference value: 100%); assay type: cell-based
CHO [8] = experiment: Cytotoxicity against Cricetulus griseus CHO (Chinese hamster ovary) cells assessed as mitotic index at 500 uM treated for 3 hr by Giemsa staining based light microscopic analysis relative to untreated control (reference value: 100%); assay type: cell-based
CHO [9] = experiment: Cytotoxicity against Cricetulus griseus CHO (Chinese hamster ovary) cells assessed as frequency of third generation of mitotic cells at 200 uM treated for 3 hr by BrdU assay (reference value: 0%); assay type: cell-based
CHO [10] = experiment: Genotoxicity in Cricetulus griseus CHO (Chinese hamster ovary) cells assessed as increase in frequencies of chromosomal aberrations bearing cells at 0.5 to 2 mM by Giemsa staining; assay type: toxicity, cell-based; details: 2000 µM
CHO [11] = experiment: Cytotoxicity against Cricetulus griseus CHO (Chinese hamster ovary) cells assessed as frequency of third generation of mitotic cells at 50 uM treated for 3 hr by BrdU assay (reference value: 0%); assay type: cell-based
CHO [12] = experiment: Cytotoxicity against Cricetulus griseus CHO (Chinese hamster ovary) cells assessed as frequency of first generation of mitotic cells at 1000 uM treated for 3 hr by BrdU assay (reference value: 10%); assay type: cell-based
CHO [13] = experiment: Cytotoxicity against Cricetulus griseus CHO (Chinese hamster ovary) cells assessed as frequency of third generation of mitotic cells at 100 uM treated for 3 hr by BrdU assay (reference value: 0%); assay type: cell-based
CHO [14] = experiment: Cytotoxicity against Cricetulus griseus CHO (Chinese hamster ovary) cells assessed as proliferative replication index at 100 uM treated for 3 hr by BrdU assay relative to untreated control (reference value: 100%); assay type: cell-based
CHO [15] = experiment: Cytotoxicity against Cricetulus griseus CHO (Chinese hamster ovary) cells assessed as frequency of first generation of mitotic cells at 100 uM treated for 3 hr by BrdU assay (reference value: 10%); assay type: cell-based
CHO [16] = experiment: Cytotoxicity against Cricetulus griseus CHO (Chinese hamster ovary) cells assessed as proliferative replication index at 200 uM treated for 3 hr by BrdU assay relative to untreated control (reference value: 100%); assay type: cell-based
CHO [17] = experiment: Cytotoxicity against Cricetulus griseus CHO (Chinese hamster ovary) cells assessed as proliferative replication index at 50 uM treated for 3 hr by BrdU assay relative to untreated control (reference value: 100%); assay type: cell-based
CHO [18] = experiment: Cytotoxicity against Cricetulus griseus CHO (Chinese hamster ovary) cells assessed as frequency of second generation of mitotic cells at 1000 uM treated for 3 hr by BrdU assay (reference value: 90%); assay type: cell-based
CHO [19] = experiment: Cytotoxicity against Cricetulus griseus CHO (Chinese hamster ovary) cells assessed as proliferative replication index at 1000 uM treated for 3 hr by BrdU assay relative to untreated control (reference value: 100%); assay type: cell-based
CHO [20] = experiment: Antioxidant activity in Cricetulus griseus CHO (Chinese hamster ovary) cells assessed as protection against H2O2-induced chromosomal aberrations treated for 15 min prior to H2O2 addition measured after 2 hr by Giemsa staining; assay type: functional, cell-based
CHO [21] = experiment: Cytotoxicity against Cricetulus griseus CHO (Chinese hamster ovary) cells assessed as frequency of second generation of mitotic cells at 50 uM treated for 3 hr by BrdU assay (reference value: 90%); assay type: cell-based
CHO [22] = experiment: Genotoxicity in Cricetulus griseus CHO (Chinese hamster ovary) cells assessed as effect on frequencies of sister chromatid exchange bearing cells at <200 uM by fluorescence-plus-Giemsa technique; assay type: toxicity, cell-based
CHO [23] = experiment: Cytotoxicity against Cricetulus griseus CHO (Chinese hamster ovary) cells assessed as frequency of first generation of mitotic cells at 50 uM treated for 3 hr by BrdU assay (reference value: 10%); assay type: cell-based
CHO [24] = experiment: Cytotoxicity against Cricetulus griseus CHO (Chinese hamster ovary) cells assessed as mitotic index at 50 uM treated for 3 hr by Giemsa staining based light microscopic analysis relative to untreated control (reference value: 100%); assay type: cell-based
CHO [25] = experiment: Genotoxicity in Cricetulus griseus CHO (Chinese hamster ovary) cells assessed as increase in frequencies of sister chromatid exchange bearing cells at 0.5 to 2 mM by fluorescence-plus-Giemsa technique; assay type: toxicity, cell-based; details: 2000 µM
CHO [26] = experiment: Genotoxicity in Cricetulus griseus CHO (Chinese hamster ovary) cells assessed as slight increase in frequencies of sister chromatid exchange bearing cells at 200 uM by fluorescence-plus-Giemsa technique; assay type: toxicity, cell-based
CHO [27] = experiment: Cytotoxicity against Cricetulus griseus CHO (Chinese hamster ovary) cells assessed as frequency of second generation of mitotic cells at 200 uM treated for 3 hr by BrdU assay (reference value: 90%); assay type: cell-based
CHO [28] = experiment: Cytotoxicity against Cricetulus griseus CHO (Chinese hamster ovary) cells assessed as mitotic index at 200 uM treated for 3 hr by Giemsa staining based light microscopic analysis relative to untreated control (reference value: 100%); assay type: cell-based

| SMILES | Activity (CHO [1]) [%] | Activity (CHO [2]) [%] | Activity (CHO [3]) [%] | Activity (CHO [4]) [%] | Activity (CHO [5]) [%] | Activity (CHO [6]) | Activity (CHO [7]) [%] | Activity (CHO [8]) [%] | Activity (CHO [9]) [%] | Activity (CHO [10]) | Activity (CHO [11]) [%] | Activity (CHO [12]) [%] | Activity (CHO [13]) [%] | Activity (CHO [14]) [%] | Activity (CHO [15]) [%] | Activity (CHO [16]) [%] | Activity (CHO [17]) [%] | Activity (CHO [18]) [%] | Activity (CHO [19]) [%] | Activity (CHO [20]) | further results |
| --- | --- | --- | --- | --- | --- | --- | --- | --- | --- | --- | --- | --- | --- | --- | --- | --- | --- | --- | --- | --- | --- |
| COCCc1cc(O)c(O)c(O)c1 | 80.8 | 0 | 34 | 82 | 5 | Non-toxic | 0 | 15.6 | 0 | Toxic | 0 | 0 | 0 | 96 | 18 | 87 | 102 | 0 | 0 | Active | Activity (CHO [21]): 94%; Activity (CHO [22]): Non-toxic; Activity (CHO [23]): 6%; Activity (CHO [24]): 79.1%; Activity (CHO [25]): Toxic; Activity (CHO [26]): Toxic; Activity (CHO [27]): 66%; Activity (CHO [28]): 87.7% |
| OCCc1cc(O)c(O)c(O)c1 [3,4,5-TRIHYDROXYPHENETHYL ALCOHOL] | 99.1 | 0 | 50 | 75 | 5 | Non-toxic | 0 | 4.3 | 0 | Toxic | 0 | 0 | 0 | 92 | 25 | 79 | 100 | 0 | 0 | Active | Activity (CHO [21]): 92%; Activity (CHO [22]): Non-toxic; Activity (CHO [23]): 8%; Activity (CHO [24]): 96.5%; Activity (CHO [25]): Toxic; Activity (CHO [26]): Toxic; Activity (CHO [27]): 50%; Activity (CHO [28]): 58.3% |

Reference: ChEMBL document CHEMBL3046171, “Synthesis and biological evaluation of gallic acid analogs” (Med Chem Res, 2013)
